The text below walks through data of patent US9901577B2, “Oxoquinazolinyl-butanamide derivatives” (MERCK PATENT GMBH, priority 2013, dated 2018).

The target of one assay is T1, PARP-1 (Homo sapiens, UniProt P09874).
T1 construct: purchased Enzo Life Sciences GmbH, Lörrach, Germany
In words: PARP-1 autoparsylation assay (HTRF). It is filed as biochemical. Conditions: His-tagged Parp-1, autoparsylation.

For a further assay, the target named is T2, TNKS1 (Homo sapiens, UniProt O95271).
T2 construct: GST-tagged Tnks-1 (1023-1327 aa, prepared in-house); made in house
In words: TNKS1 activity ELISA (autoparsylation assay). It is filed as biochemical. The protocol: (§1) Description of the TNKS1 and TNKS2 ELISA Assay
(§2) Biochemical Activity Testing of TNKS 1 and 2: Activity ELISA (Autoparsylation Assay)
(§3) For analysis of autoparsylation activity of TNKS 1 and 2 an activity ELISA iss performed: In the first step GST tagged TNKS is captured on a Glutathione coated plate. Then the activity assay with biotinylated NAD is performed in the absence/presence of the compounds. During the enzymatic reaction GST tagged TNKS transfers biotinylated ADP-ribose to itself from biotinylated NAD as co-substrate. For the detection streptavidin-HRP conjugate is added that binds to the biotinylated TNKS and is thereby captured to the plates. The amount of biotinylated resp. autoparsylated TNKS is detected with a luminescence substrate for HRP. The level of the luminescence signal correlates directly with the amount of autoparsylated TNKS and therefore with activity of TNKS.
(§4) The activity ELISA is performed in 384 well Glutathione coated microtiter plates (Express capture Glutathione coated plate, Biocat, Heidelberg, Germany). The plates are pre-equilibrated with PBS. […] The plates are washed 3 times with PBS-Tween-20. The wells are blocked by incubation at room temperature for 20 minutes with 50 μl blocking buffer (PBS, 0.05% Tween-20, 0.5% BSA). Afterwards the plates are washed 3 times with PBS-Tween-20. […] The reaction is stopped by 3 times washing with PBS-Tween-20. For the detection 50 μl of 20 ng/μl Streptavidin, HRP conjugate (MoBiTec, Göttingen, Germany) in PBS/0.05% Tween-20/0.01% BSA are added and the plates are incubated for 30 minutes at room temperature. After three times washing with PBS-Tween-20 50 μl of SuperSignal ELISA Femto Maximum sensitivity substrate solution (ThermoFisherScientific (Pierce), Bonn, Germany) are added. Following a 1 minute incubation at room temperature luminescence signals are measured with an Envision multimode reader (Perkin Elmer LAS Germany GmbH) at 700 nm. The full value used is the inhibitor-free reaction. […] The inhibitory values (IC50) are determined using either the program Symyx Assay Explorer® or Condosseo® from GeneData.

In the next assay the target is T3, TNKS2 (Homo sapiens, UniProt Q9H2K2).
T3 construct: GST-tagged Tnks-2 (873-1166 aa, prepared in-house); made in house
In words: TNKS2 activity ELISA (autoparsylation assay). It counts as biochemical. As to the method: as §1, §2, §3, §4

The test system of another assay is T4, Tankyrase.
T4 construct: TNKS cellular assay; other: DLD1 cells, Axin2 increase, 24 hours
In words: Measurement of cellular inhibition of Tankyrase (Axin2 level in DLD1 cells, Luminex based assay). It counts as cell-based. Conditions: read-out: EC50 [M] TNKS cellular assay; DLD1 cells, Axin2 increase, 24 hours. As to the method:
Measurement of Cellular Inhibition of Tankyrase
Cells of the colon carcinoma cell line DLD1 are plated in 96 well plates with 1.5×10^4 cells per well. Next day, cells are treated with a serial dilution of test compound in seven steps as triplicates with a final DMSO concentration of 0.3%. […] The amount of isolated Axin2 protein is determined in a Luminex^200 machine (Luminex Corporation) according to the manufacturer's instruction by counting 100 events per well. […] As controls cells are treated with solvent alone (neutral control) and with a Tankyrase reference inhibitor IWR-2 (3E-06 M) which refers as control for maximum increase of Axin2. For analysis, the obtained data are normalized against the untreated solvent control and fitted for determination of the EC50 values using the Assay Explorer software (Accelrys).

Setting [1] is: GST-tagged Tnks-1, read-out: IC50 [M] TNKS1 ELISA.
Where [2] appears, read: GST-tagged Tnks-2, read-out: IC50 [M] TNKS2 ELISA.

One may read the IC50 as the concentration that inhibits the measured activity by half. In general, EC50 refers to the concentration needed to bring the measured effect to its halfway point.

Structures are written as SMILES. Where two headings read alike, the source gives them in different places. Bounds are passed on as bounds.

T1 sequence (P09874 whole entry): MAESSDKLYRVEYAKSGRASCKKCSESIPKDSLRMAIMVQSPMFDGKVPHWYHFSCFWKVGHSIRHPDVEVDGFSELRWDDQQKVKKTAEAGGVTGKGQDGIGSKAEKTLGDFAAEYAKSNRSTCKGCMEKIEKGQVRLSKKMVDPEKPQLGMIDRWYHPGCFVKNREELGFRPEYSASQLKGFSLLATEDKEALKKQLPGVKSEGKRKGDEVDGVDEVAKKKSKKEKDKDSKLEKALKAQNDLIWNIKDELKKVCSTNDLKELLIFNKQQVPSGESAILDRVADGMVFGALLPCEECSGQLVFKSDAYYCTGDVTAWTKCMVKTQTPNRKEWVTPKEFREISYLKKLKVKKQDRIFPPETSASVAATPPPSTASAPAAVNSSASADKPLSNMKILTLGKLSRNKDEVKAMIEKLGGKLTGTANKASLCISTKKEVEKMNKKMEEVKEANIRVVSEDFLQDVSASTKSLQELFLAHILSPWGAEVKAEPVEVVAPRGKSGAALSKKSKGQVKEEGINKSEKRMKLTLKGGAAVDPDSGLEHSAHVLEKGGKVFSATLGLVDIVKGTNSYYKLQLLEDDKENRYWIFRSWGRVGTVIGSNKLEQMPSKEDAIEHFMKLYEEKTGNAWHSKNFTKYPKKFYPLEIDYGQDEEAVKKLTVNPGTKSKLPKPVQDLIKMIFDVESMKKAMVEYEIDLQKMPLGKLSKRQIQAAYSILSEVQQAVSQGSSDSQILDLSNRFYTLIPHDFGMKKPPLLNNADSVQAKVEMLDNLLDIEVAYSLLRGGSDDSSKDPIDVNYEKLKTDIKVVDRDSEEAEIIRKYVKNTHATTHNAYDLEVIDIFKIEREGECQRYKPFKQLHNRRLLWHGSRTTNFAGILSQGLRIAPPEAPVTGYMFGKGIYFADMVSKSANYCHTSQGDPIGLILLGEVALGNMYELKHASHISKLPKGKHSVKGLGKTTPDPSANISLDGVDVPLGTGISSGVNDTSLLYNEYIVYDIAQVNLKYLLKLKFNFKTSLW
T3 sequence (Q9H2K2 873-1166): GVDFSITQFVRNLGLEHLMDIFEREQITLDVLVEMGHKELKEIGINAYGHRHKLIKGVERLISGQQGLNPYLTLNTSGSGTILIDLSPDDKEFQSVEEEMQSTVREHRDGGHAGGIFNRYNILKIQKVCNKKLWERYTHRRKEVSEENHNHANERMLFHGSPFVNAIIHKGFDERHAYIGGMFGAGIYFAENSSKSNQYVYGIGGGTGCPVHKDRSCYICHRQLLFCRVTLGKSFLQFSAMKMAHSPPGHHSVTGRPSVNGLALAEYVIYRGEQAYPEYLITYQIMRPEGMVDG
T2 sequence (O95271 1023-1327): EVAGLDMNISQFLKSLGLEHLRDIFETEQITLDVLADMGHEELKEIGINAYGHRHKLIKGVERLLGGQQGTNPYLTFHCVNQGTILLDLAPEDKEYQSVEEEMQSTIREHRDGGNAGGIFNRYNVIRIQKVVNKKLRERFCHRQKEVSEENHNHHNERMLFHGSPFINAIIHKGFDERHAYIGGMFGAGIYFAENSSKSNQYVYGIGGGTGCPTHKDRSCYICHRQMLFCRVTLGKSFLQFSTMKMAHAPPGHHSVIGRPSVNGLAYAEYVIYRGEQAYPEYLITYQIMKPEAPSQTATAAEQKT

Consider `Cc1cccc(C(=O)C2CCN(C(=O)CCCc3nc4ccccc4c(=O)[nH]3)CC2)c1` [Compound A7, 2-{4-[4-(3-methyl-benzoyl)-piperidin-1-yl]-4-oxo-butyl}-3H-quinazolin-4-one], for which the IC50 at PARP-1 is 810 nM; against TNKS1 it was 2.2e-10 M; against TNKS2, 1.9e-10 M. Further, the EC50 in the assay on Tankyrase is 2e-08 M.

Regarding `COc1ccc(C(=O)C2CCN(C(=O)CCCc3nc4c(C)cc(F)cc4c(=O)[nH]3)CC2)cc1` [Compound A4, 6-fluoro-2-{4-[4-(4-methoxy-benzoyl)-piperidin-1-yl]-4-oxo-butyl}-8-methyl-3H-quinazolin-4-one], the IC50 turned out to be 170 nM at PARP-1, 6.6e-11 M at TNKS1 (setting [1]) and 8.9e-11 M at TNKS2 (setting [2]). The EC50 in the assay with Tankyrase amounted to 5.6e-10 M.

With `COc1ccc(C(=O)C2CCN(C(=O)CCCc3nc4ccc(F)cc4c(=O)[nH]3)CC2)cc1C` [Compound A24, 6-Fluoro-2-{4-[4-(4-methoxy-3-methyl-benzoyl)-piperidin-1-yl]-4-oxo-butyl}-3H-quinazolin-4-one], the IC50 is 1000 nM against PARP-1, 1.6e-10 M on TNKS1 (setting [1]) and 1.4e-10 M at TNKS2 (setting [2]). Besides, in the assay with Tankyrase, the EC50 was found to be 1e-09 M.

Consider `O=C(c1ccc(-c2cnn(CCN3CCCC3)c2)cc1)C1CCN(C(=O)CCCc2nc3ccccc3c(=O)[nH]2)CC1` [Compound A12, 2-[4-oxo-4-(4-{4-[1-(2-pyrrolidin-1-yl-ethyl)-1H-pyrazol-4-yl]-benzoyl}-piperidin-1-yl)-butyl]-3H-quinazolin-4-one], for which the IC50 on PARP-1 came out at 650 nM; at TNKS1 (setting [1]), 2.5e-10 M; on TNKS2 (setting [2]), 3.5e-10 M. Moreover, in the assay on Tankyrase, the EC50 was 6.8e-09 M.

As to `COc1ccc(C(=O)C2CCN(C(=O)CCCc3nc4c(F)cccc4c(=O)[nH]3)CC2)cn1` [Compound A33, 8-Fluoro-2-{4-[4-(6-methoxy-pyridine-3-carbonyl)-piperidin-1-yl]-4-oxo-butyl}-3H-quinazolin-4-one], the IC50 against PARP-1 stood at 5000 nM; at TNKS1 (setting [1]), 1.3e-09 M; at TNKS2 (setting [2]) it was 5.2e-10 M. Besides, the EC50 in the assay on Tankyrase stood at 1.3e-08 M.

Consider `N#Cc1ccc(OC2CCN(C(=O)CCCc3nc4ccccc4c(=O)[nH]3)CC2)cc1` [Compound A17, 4-{1-[4-(4-Oxo-3,4-dihydro-quinazolin-2-yl)-butyryl]-piperidin-4-yloxy}-benzonitrile], for which the IC50 against PARP-1 stood at 680 nM; on TNKS1, 1.5e-07 M; against TNKS2 it was 7.9e-08 M. In addition, in the assay on Tankyrase, the EC50 was found to be 7.2e-07 M.

For `COCCn1cc(-c2ccc(C(=O)C3CCN(C(=O)CCCc4nc5ccccc5c(=O)[nH]4)CC3)cc2)cn1` [Compound A11, 2-[4-(4-{4-[1-(2-methoxy-ethyl)-1H-pyrazol-4-yl]-benzoyl}-piperidin-1-yl)-4-oxo-butyl]-3H-quinazolin-4-one], the IC50 on PARP-1 amounted to 300 nM; at TNKS1 (setting [1]) it was 5.8e-11 M; on TNKS2 (setting [2]), 1.2e-10 M. Besides, the EC50 with Tankyrase stood at 7.3e-09 M.

For `COc1ccc(C(=O)C2CCN(C(=O)CCCc3nc4c(F)cccc4c(=O)[nH]3)CC2)cc1C` [Compound A29, 8-Fluoro-2-{4-[4-(4-methoxy-3-methyl-benzoyl)-piperidin-1-yl]-4-oxo-butyl}-3H-quinazolin-4-one], the figures for the IC50 at PARP-1, at TNKS1 (setting [1]) and on TNKS2 (setting [2]) were 2600 nM, 1.2e-10 M and below 1e-10 M, respectively. Besides, in the assay on Tankyrase, the EC50 turned out to be 6.2e-10 M.

As for `COc1ccc(C(=O)C2CCN(C(=O)CCCc3nc4ccccc4c(=O)[nH]3)CC2)cn1` [Compound A16, 2-{4-[4-(6-Methoxy-pyridine-3-carbonyl)-piperidin-1-yl]-4-oxo-butyl}-3H-quinazolin-4-one], the IC50 at PARP-1 came to 2700 nM; on TNKS1 (setting [1]), 1.1e-09 M; on TNKS2 (setting [2]) it was 7.5e-10 M. The EC50 in the assay on Tankyrase was determined as 1e-08 M.

`COc1ccc(C(=O)C2CCN(C(=O)CCCc3nc4c(F)cccc4c(=O)[nH]3)CC2)cc1` [Compound A25, 8-Fluoro-2-{4-[4-(4-methoxy-benzoyl)-piperidin-1-yl]-4-oxo-butyl}-3H-quinazolin-4-one]: the IC50 stood at 2100 nM against PARP-1, 2.8e-10 M on TNKS1 (setting [1]) and 2e-10 M at TNKS2 (setting [2]). Also, the EC50 in the assay on Tankyrase was 2.1e-09 M.

In the case of `COc1cccc(C(=O)C2CCN(C(=O)CCCc3nc4ccccc4c(=O)[nH]3)CC2)c1` [Compound A9, 2-{4-[4-(3-methoxy-benzoyl)-piperidin-1-yl]-4-oxo-butyl}-3H-quinazolin-4-one], the IC50 came out at 740 nM at PARP-1, 1.9e-10 M at TNKS1 (setting [1]) and 3.3e-10 M on TNKS2 (setting [2]). In addition, the EC50 with Tankyrase turned out to be 1.9e-08 M.

With `Cc1cc(F)cc2c(=O)[nH]c(CCCC(=O)N3CCC(C(=O)c4ccccc4)CC3)nc12` [Compound A3, 2-[4-(4-benzoyl-piperidin-1-yl)-4-oxo-butyl]-6-fluoro-8-methyl-3H-quinazolin-4-one], the values for the IC50 on PARP-1, at TNKS1 (setting [1]) and on TNKS2 (setting [2]) were 29 nM, 2.2e-10 M and 1.3e-10 M, respectively. Also, the EC50 in the assay with Tankyrase turned out to be 3.4e-09 M.

As to `N#Cc1ccc(OC2CCN(C(=O)CCCc3nc4c(F)cccc4c(=O)[nH]3)CC2)cc1` [Compound A27, 4-{1-[4-(8-Fluoro-4-oxo-3,4-dihydro-quinazolin-2-yl)-butyryl]-piperidin-4-yloxy}-benzonitrile], the IC50 turned out to be 1.3 nM against PARP-1, 1.5e-07 M against TNKS1 and 8.6e-08 M against TNKS2. Also, the EC50 in the assay on Tankyrase came out at 4.4e-07 M.

Take `N#Cc1ccc(OC2CCN(C(=O)CCCc3nc4ccc(F)cc4c(=O)[nH]3)CC2)cc1` [Compound A22, 4-{1-[4-(6-Fluoro-4-oxo-3,4-dihydro-quinazolin-2-yl)-butyryl]-piperidin-4-yloxy}-benzonitrile]: the IC50 against PARP-1 was determined as 640 nM; at TNKS1 (setting [1]), 1.3e-07 M; on TNKS2 (setting [2]), 7.6e-08 M. In addition, the EC50 with Tankyrase was 5.6e-07 M.

Take `COc1ccc(C(=O)C2CCN(C(=O)CCCc3nc4ccc(F)cc4c(=O)[nH]3)CC2)cc1` [Compound A19, 6-Fluoro-2-{4-[4-(4-methoxy-benzoyl)-piperidin-1-yl]-4-oxo-butyl}-3H-quinazolin-4-one]: the IC50 against PARP-1 came to 710 nM; at TNKS1 (setting [1]), 3.1e-10 M; on TNKS2 (setting [2]), 3.2e-10 M. Besides, the EC50 in the assay on Tankyrase came out at 8.3e-10 M.

Take `COc1ccc(C(=O)C2CCN(C(=O)CCCc3nc4c(F)cc(F)cc4c(=O)[nH]3)CC2)cc1` [Compound A5, 6,8-difluoro-2-{4-[4-(4-methoxy-benzoyl)-piperidin-1-yl]-4-oxo-butyl}-3H-quinazolin-4-one]: the IC50 turned out to be 780 nM against PARP-1, 8.7e-11 M at TNKS1 (setting [1]) and 1.6e-10 M on TNKS2 (setting [2]). The EC50 in the assay on Tankyrase is 2.6e-09 M.

For the molecule `N#Cc1cc(C2CCN(C(=O)CCCc3nc4c(F)cccc4c(=O)[nH]3)CC2)cnc1N` [Compound A34, 6-Amino-1′-[4-(8-fluoro-4-oxo-3,4-dihydro-quinazolin-2-yl)-butyryl]-1′,2′,3′,4′,5′,6′-hexahydro-[3,4]bipyridinyl-5-carbonitrile], the values for the IC50 on PARP-1, at TNKS1 (setting [1]) and on TNKS2 (setting [2]) were 2700 nM, 3.3e-09 M and 1.6e-09 M, respectively. In addition, in the assay with Tankyrase, the EC50 is 3.4e-08 M.

On to `Nc1ncc(C2CCN(C(=O)CCCc3nc4ccc(F)cc4c(=O)[nH]3)CC2)cc1-c1ncccn1` [Compound A32, 2-[4-(6-Amino-5-pyrimidin-2-yl-3′,4′,5′,6′-tetrahydro-2′H-[3,4]bipyridinyl-1′-yl)-4-oxo-butyl]-6-fluoro-3H-quinazolin-4-one], for which the IC50 against PARP-1 stood at 600 nM; at TNKS1 (setting [1]), 3.2e-10 M; on TNKS2 (setting [2]), 3.4e-10 M. For the same molecule, the EC50 in the assay on Tankyrase was determined as 2.3e-09 M.

`COc1ccc(C(=O)C2CCN(C(=O)CCCc3nc4c(F)cc(F)cc4c(=O)[nH]3)CC2)cc1C` [Compound A14, 6,8-difluoro-2-[4-[4-(4-methoxy-3-methyl-benzoyl)-1-piperidyl]-4-oxo-butyl]-3H-quinazolin-4-one]: the 50% inhibitory concentration (IC50) against PARP-1 was determined as 1000 nM; at TNKS1 (setting [1]), 8.6e-11 M; at TNKS2 (setting [2]), 1.6e-10 M. The EC50 with Tankyrase was 3.3e-09 M.
